Like-named read-outs stand apart in the source and are kept apart here.
What was measured:
HCV replicon = test: Anti-HCV replicon assay (EC50, luciferase readout); assay type: cell-based, hepatitis C virus; conditions: human hepatoma Huh-7 cell line harbouring a HCV replicon, 3 days incubation, luciferase signal
Experimental: (§1) The anti HCV activity of specifically substituted pteridine derivatives was tested in a human hepatoma Huh-7 cell line harbouring a HCV replicon. The assay comprised the following steps:
(§2) Step 1: compound preparation and serial dilution involved the following alternatives, depending upon the water solubility of pteridine derivative being tested:
(§3) • 1. with respect to water soluble pteridine derivatives, 500 μL of solution in cell media (DMEM, 10% FBS, P/S, L-Glutamine) was prepared with a concentration that is twice the concentration of the starting final serial dilution concentration. 150 μL of the solution was added to the pre-specified wells in column 1 of a 96-well cell culture plate (PerkinElmer, white plate, cat. #6005181, for EC50 assay; black plate, cat. #6005182 for CC50 assay). The rest of the plate, i.e. columns 2-12, was filled with 100 μL of cell media. The plate was then placed on a Precision 2000 Workstation in order to start serial dilution. Pteridine compounds were diluted three times each step from column 1 to column 10. Column 11 was used as a blank control (no pteridine compound added). • 2. With respect to poorly water soluble pteridine derivatives, DMSO was used as a solvent, and serial dilution was performed in 50% DMSO in water, in a 384-well plate. A solution containing the relevant compound at 100-fold the concentration of the starting final serial dilution concentration was prepared in 50% DMSO in water and added to the pre-specified wells in column 1 of a polypropylene 384-well plate. This plate was then placed on a Precision 2000 Workstation in order to start serial dilution. After serial dilution, 2 μL of the solution was transferred from the 384-well plate to a 96-well cell culture plate containing 100 μL of cell media on a Biomek FX Workstation. The DMSO concentration in the final assay condition was 0.5% after cells have been added to the plate and the total volume in each well was brought to 200 μL. Step 2: to each well of the serial dilution plate prepared in step 1, 100 μL of cell media containing 6000 suspended Huh-7 HCV replicon cells was added with a Multidrop workstation. Plates were incubated for 3 days at 37° C. with 5% CO2. Step 3: detection: • 1) with respect to the EC50 assay, the media in a 96-well cell culture plate was aspirated with a Biotek EL405 plate-washer. A volume of 200 μL of a solution containing a 1:1 mixture of a cell-lysis buffer (commercially available from Promega, Luciferase Cell Culture Lysis 5X Reagent, cat. #E1531) and a luciferase substrate solution (commercially available from Promega, Luciferase Assay, cat. #E4550) was added to each well of the plate with Multidrop. The plate was incubated for 30 minutes at room temperature before the luminescence signal was measured with a TopCount plate-reader. • 2) with respect to the CC50 assay, 100 μL of a pre-mixed CellTiter-Glo (commercially available from Promega, cat. #G7572) solution was added directly to the cell culture in each well of the plate and the luminescence signal was measured with a TopCount plate-reader after 10 minutes of incubation at room temperature.
(§4) Results are expressed by the following data: • the 50% effective concentration (EC50), i.e. the concentration that protects 50% of the cell monolayer from virus-induced cythopathic effect. • the 50% cytostatic concentration (CC50), i.e. the concentration that results in 50% inhibition of cell growth.

[1] = CC50 assay (CellTiter-Glo) in Huh-7 HCV replicon cells; assay type: cell-based, human; conditions: human, 3 days incubation, 50% cytostatic concentration
Experimental: as §1, §2, §3, §4

[2] = Hepatitis C virus, 72 h, read-out: EC50

Structure (SMILES): Nc1nc(N2CCOCC2)c2nc(-c3ccsc3)cnc2n1 [Example 110, 4-morpholino-6-(thiophen-3-yl)pteridin-2-ylamine]
- EC50 (HCV replicon; [2]): 1 to 10 µM
- CC50 at 3 days [1]: > 20 µM

Structure (SMILES): COc1nc(N)nc2ncc(-c3ccc(F)cc3)nc12 [Example 149, 6-(4-Fluorophenyl)-4-methoxy-pteridin-2-ylamine]
- EC50 (HCV replicon; [2]): 0.3 to 1 µM
- CC50 at 3 days [1]: > 20 µM

Structure (SMILES): Nc1nc(N2CCOCC2)c2nc(-c3cc4ccccc4o3)cnc2n1 [Example 133, 6-(benzofuran-2-yl)-4-morpholinopteridin-2-ylamine]
- EC50 (HCV replicon; [2]): 0.3 to 1 µM
- CC50 at 3 days [1]: > 20 µM

Structure (SMILES): Nc1nc(N2CCOCC2)c2nc(-c3cccnc3F)cnc2n1 [Example 109, 6-(2-fluoropyridin-3-yl)-4-morpholino-pteridin-2-ylamine]
- EC50 (HCV replicon; Hepatitis C virus, Huh-7, 72 h): 1 to 10 µM
- CC50 at 3 days [1]: 10 to 20 µM

Structure (SMILES): Nc1nc(N2CCOCC2)c2nc(-c3ccn[nH]3)cnc2n1 [Example 112, 4-morpholino-6-(1H-pyrazol-5-yl)pteridin-2-ylamine]
- EC50 (HCV replicon; [2]): 1 to 10 µM
- CC50 at 3 days [1]: > 20 µM

Structure (SMILES): Nc1nc(N2CCOCC2)c2nc(-c3ccccc3C(F)(F)F)cnc2n1 [Example 79, 4-morpholino-6-(2-(trifluoromethyl)phenyl)pteridin-2-ylamine]
- EC50 (HCV replicon; [2]): 0.3 to 1 µM
- CC50 at 3 days [1]: < 10 µM

Structure (SMILES): Nc1nc(N2CCOCC2)c2nc(-c3ccc(NC(=O)[C@@H](N)CO)cc3)cnc2n1 [Example 144, (S)-2-amino-N-(4-(2-amino-4-morpholinopteridin-6-yl)phenyl)-3-hydroxypropanamide]
- EC50 (HCV replicon; [2]): 1 to 10 µM
- CC50 at 3 days [1]: > 20 µM

Structure (SMILES): Nc1nc(N2CCOCC2)c2nc(-c3cccc(Cl)c3Cl)cnc2n1 [Example 91, 6-(2,3-dichlorophenyl)-4-morpholinopteridin-2-amine]
- EC50 (HCV replicon; Hepatitis C virus, Huh-7, 72 h): 0.3 to 1 µM
- CC50 at 3 days [1]: > 20 µM

Structure (SMILES): Nc1nc(N2CCOCC2)c2nc(-c3cccc(Cl)c3)cnc2n1 [Example 82, 6-(3-chlorophenyl)-4-morpholinopteridin-2-ylamine]
- EC50 (HCV replicon; Hepatitis C virus, Huh-7, 72 h): 0.3 to 1 µM
- CC50 at 3 days [1]: > 20 µM

Structure (SMILES): CCSc1nc(N)nc2ncc(-c3ccc(F)cc3)nc12 [Example 164, 4-ethylthio-6-(4-fluorophenyl)-pteridin-2-ylamine]
- EC50 (HCV replicon; [2]): 0.3 to 1 µM
- CC50 at 3 days [1]: > 20 µM

Structure (SMILES): CNC(=O)c1ccc(-c2cnc3nc(N)nc(N4CCOCC4)c3n2)cc1 [Example 114, 4-(2-amino-4-morpholinopteridin-6-yl)-N-methylbenzamide]
- EC50 (HCV replicon; [2]): 1 to 10 µM
- CC50 at 3 days [1]: > 20 µM

Structure (SMILES): CCCCOc1nc(N)nc2ncc(-c3ccc(F)cc3)nc12 [Example 152, 4-Butoxy-6-(4-fluorophenyl)-pteridin-2-ylamine]
- EC50 (HCV replicon; [2]): 1 to 10 µM
- CC50 at 3 days [1]: > 20 µM

Structure (SMILES): Nc1nc(N2CCOCC2)c2nc(-c3cccc(F)c3F)cnc2n1 [Example 90, 6-(2,3-difluorophenyl)-4-morpholinopteridin-2-ylamine]
- EC50 (HCV replicon): 0.3 to 1 µM
- CC50 at 3 days [1]: > 20 µM

Structure (SMILES): CCOc1nc(N)nc2ncc(-c3ccc(Cl)cc3)nc12 [Example 27, 6-(4-chlorophenyl)-4-ethoxypteridin-2-ylamine]
- EC50 (HCV replicon; Hepatitis C virus, Huh-7, 72 h): 0.3 to 1 µM
- CC50 at 3 days [1]: < 10 µM

Structure (SMILES): Nc1nc(N2CCOCC2)c2nc(-c3ccc(F)cc3Cl)cnc2n1 [Example 92, 6-(2-chloro-4-fluorophenyl)-4-morpholinopteridin-2-ylamine]
- EC50 (HCV replicon; Hepatitis C virus, Huh-7, 72 h): 0.3 to 1 µM
- CC50 at 3 days [1]: 10 to 20 µM

Structure (SMILES): CCOc1nc(N)nc2ncc(-c3ccc(N)cc3)nc12 [Example 69, 6-(4-aminophenyl)-4-ethoxypteridin-2-ylamine]
- EC50 (HCV replicon; Hepatitis C virus, Huh-7, 72 h): 1 to 10 µM
- CC50 at 3 days [1]: > 20 µM

Structure (SMILES): C[C@H](N)C(=O)Nc1ccc(-c2cnc3nc(N)nc(N4CCOCC4)c3n2)cc1 [Example 145, (S)-2-amino-N-(4-(2-amino-4-morpholinopteridin-6-yl)phenyl)-propanamide]
- EC50 (HCV replicon; [2]): 0.3 to 1 µM
- CC50 at 3 days [1]: > 20 µM

Structure (SMILES): Nc1nc(N2CCOCC2)c2nc(-c3ccc(Cl)s3)cnc2n1 [Example 127]
- EC50 (HCV replicon; Hepatitis C virus, Huh-7, in Homo sapiens, 72 h): 0.3 to 1 µM
- CC50 at 3 days [1]: < 10 µM

Structure (SMILES): CC(C)(O)CCOc1nc(N)nc2ncc(-c3ccc(F)cc3)nc12 [Example 154, 4-[2-Amino-6-(4-fluorophenyl)-pteridin-4-yloxy]-2-methyl-butan-2-ol]
- EC50 (HCV replicon; Hepatitis C virus, Huh-7, 72 h): 1 to 10 µM
- CC50 at 3 days [1]: > 20 µM

Structure (SMILES): N#Cc1cccc(-c2cnc3nc(N)nc(N4CCOCC4)c3n2)c1 [Example 85, 3-(2-amino-4-morpholinopteridin-6-yl)benzonitrile]
- EC50 (HCV replicon; [2]): 1 to 10 µM
- CC50 at 3 days [1]: > 20 µM

Structure (SMILES): Nc1nc(N2CCOCC2)c2nc(-c3cccc(OC(F)(F)F)c3)cnc2n1 [Example 84, 4-morpholino-6-(3-(trifluoromethoxy)phenyl)-pteridin-2-ylamine]
- EC50 (HCV replicon; [2]): < 0.3 µM
- CC50 at 3 days [1]: < 10 µM

Structure (SMILES): Nc1nc(OCC2CC2)c2nc(-c3ccc(F)cc3)cnc2n1 [Example 157, 4-Cyclopropylmethoxy-6-(4-fluorophenyl)-pteridin-2-ylamine]
- EC50 (HCV replicon; [2]): 1 to 10 µM
- CC50 at 3 days [1]: > 20 µM

Structure (SMILES): Nc1nc(N2CCOCC2)c2nc(-c3cc4ccccc4s3)cnc2n1 [Example 123, 6-(benzo[b]thiophen-2-yl)-4-morpholinopteridin-2-ylamine]
- EC50 (HCV replicon; Hepatitis C virus, Huh-7, 72 h): 0.3 to 1 µM
- CC50 at 3 days [1]: < 10 µM

Structure (SMILES): Nc1nc(N2CCOCC2)c2nc(-c3ccoc3)cnc2n1 [Example 111, 6-(furan-3-yl)4-morpholinopteridin-2-ylamine]
- EC50 (HCV replicon; Hepatitis C virus, Huh-7, 72 h): 1 to 10 µM
- CC50 at 3 days [1]: > 20 µM

Structure (SMILES): C[C@H](NC(=O)OC(C)(C)C)C(=O)Nc1ccc(-c2cnc3nc(N)nc(N4CCOCC4)c3n2)cc1 [Example 140, (S)-tert-butyl 1-(4-(2-amino-4-morpholinopteridin-6-yl)phenylamino)-1-oxopropan-2-ylcarbamate]
- EC50 (HCV replicon; [2]): 1 to 10 µM
- CC50 at 3 days [1]: < 10 µM

Structure (SMILES): CCOc1nc(N)nc2ncc(-c3ccc(O)cc3)nc12 [Example 57, 4-(2-amino-4-ethoxypteridin-6-yl)phenol]
- EC50 (HCV replicon; Hepatitis C virus, Huh-7, 72 h): 1 to 10 µM
- CC50 at 3 days [1]: > 20 µM

Structure (SMILES): COC(=O)Nc1ccc(-c2cnc3nc(N)nc(N4CCOCC4)c3n2)cc1 [Example 129, methyl 4-(2-amino-4-morpholinopteridin-6-yl)phenylcarbamate]
- EC50 (HCV replicon; [2]): < 0.3 µM
- CC50 at 3 days [1]: < 10 µM

Structure (SMILES): Nc1nc(N2CCOCC2)c2nc(-c3ccccc3Cl)cnc2n1 [Example 78, 6-(2-chlorophenyl)-4-morpholinopteridin-2-ylamine]
- EC50 (HCV replicon; Hepatitis C virus, Huh-7, 72 h): 0.3 to 1 µM
- CC50 at 3 days [1]: < 10 µM

Structure (SMILES): Nc1nc(N2CCOCC2)c2nc(-c3c(Cl)cccc3Cl)cnc2n1 [Example 95, 6-(2,6-dichlorophenyl)-4-morpholinopteridin-2-ylamine]
- EC50 (HCV replicon; Hepatitis C virus, Huh-7, 72 h): 1 to 10 µM
- CC50 at 3 days [1]: 10 to 20 µM

Structure (SMILES): Nc1nc(N2CCOCC2)c2nc(-c3cccnc3)cnc2n1 [Example 108, 4-morpholino-6-(pyridin-3-yl)pteridin-2-ylamine]
- EC50 (HCV replicon; [2]): 0.3 to 1 µM
- CC50 at 3 days [1]: 10 to 20 µM

Structure (SMILES): CCOc1nc(N)nc2ncc(-c3ccc(C)cc3)nc12 [Example 54, 4-ethoxy-6-p-tolylpteridin-2-ylamine]
- EC50 (HCV replicon; [2]): 1 to 10 µM
- CC50 at 3 days [1]: > 20 µM
